Laboratory results taken from publication PMC9358669, “Native metabolomics identifies the rivulariapeptolide family of protease inhibitors” (Nature Communications, 2022).
pIC50: −log10 of the molar value. Where two headings read alike, the source gives them in different places.

What was measured:
[1] = target: T1, Chymotrypsin (Bos taurus, UniProt P00766); experiment: Chymotrypsin inhibition, fluorogenic substrate assay (Suc-Ala-Ala-Pro-Phe-AMC); type: biochemical; settings: for Mean (RFU/s): Chymotrypsin; for fold increase in potency towards chymotrypsin: molassamide B (6) compared to molassamide (5)
T1 construct: purchased Sigma-Aldrich

[2] = target: T2, Elastase (Sus scrofa, UniProt P00772); experiment: Elastase inhibition, fluorogenic substrate assay (MeOSuc-Ala-Ala-Pro-Val-AMC); type: biochemical, Sus domesticus; settings: for pIC50 / Mean (RFU/s): 40 min pre-incubation; for pIC50: mean, n = 3; for Mean (RFU/s): Elastase
T2 construct: purchased Sigma-Aldrich
T2 sequence (P00772 27-266): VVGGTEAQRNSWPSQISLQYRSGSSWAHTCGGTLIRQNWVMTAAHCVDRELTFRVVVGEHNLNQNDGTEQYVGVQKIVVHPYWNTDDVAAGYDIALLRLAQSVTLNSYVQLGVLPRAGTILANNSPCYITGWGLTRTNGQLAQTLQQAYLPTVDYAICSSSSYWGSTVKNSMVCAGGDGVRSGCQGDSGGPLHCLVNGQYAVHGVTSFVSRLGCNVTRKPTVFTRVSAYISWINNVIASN

[3] = target: T3, Proteinase K (Parengyodontium album, UniProt P06873); experiment: Proteinase K inhibition, fluorogenic substrate assay (Suc-Ala-Ala-Pro-Phe-AMC); type: biochemical, Tritirachium album; settings: for pIC50 / Mean (RFU/s): 40 min pre-incubation; for pIC50: mean, n = 3; for Mean (RFU/s): Proteinase K
T3 construct: purchased Roche
T3 sequence (P06873 106-384): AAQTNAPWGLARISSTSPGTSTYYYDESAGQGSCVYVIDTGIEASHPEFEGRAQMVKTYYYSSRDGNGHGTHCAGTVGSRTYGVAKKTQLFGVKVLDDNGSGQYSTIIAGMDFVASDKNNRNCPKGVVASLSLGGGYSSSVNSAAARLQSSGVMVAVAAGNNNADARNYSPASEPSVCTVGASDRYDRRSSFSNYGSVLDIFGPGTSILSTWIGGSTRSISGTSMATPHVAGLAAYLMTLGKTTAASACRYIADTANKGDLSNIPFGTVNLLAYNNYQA

[4] = 40 min pre-incubation, mean, n = 3, read-out: IC50 Chymotrypsin
[5] = inhibitor concentration 0.0508053 nM, 40 min pre-incubation
[6] = inhibitor concentration 0.152416 nM, 40 min pre-incubation
[7] = inhibitor concentration 0.457247 nM, 40 min pre-incubation
[8] = inhibitor concentration 1.37174 nM, 40 min pre-incubation
[9] = inhibitor concentration 4.11523 nM, 40 min pre-incubation
[10] = inhibitor concentration 12.3457 nM, 40 min pre-incubation
[11] = inhibitor concentration 37.037 nM, 40 min pre-incubation
[12] = inhibitor concentration 111.111 nM, 40 min pre-incubation
[13] = inhibitor concentration 333.333 nM, 40 min pre-incubation
[14] = inhibitor concentration 1000 nM, 40 min pre-incubation
[15] = inhibitor concentration 3000 nM, 40 min pre-incubation
[16] = Supplementary Table 5, compounds of this study, read-out: Chymotrypsin IC50
[17] = inhibitor concentration 0.0508053 nM
[18] = inhibitor concentration 0.152416 nM
[19] = inhibitor concentration 0.457247 nM
[20] = inhibitor concentration 1.37174 nM
[21] = inhibitor concentration 4.11523 nM
[22] = inhibitor concentration 12.3457 nM
[23] = inhibitor concentration 37.037 nM
[24] = inhibitor concentration 111.111 nM
[25] = inhibitor concentration 333.333 nM
[26] = inhibitor concentration 1000 nM
[27] = inhibitor concentration 3000 nM
[28] = molassamide B (6) compared to molassamide (5)
[29] = replacement of Abu (compound 2) for Leu (1)

Question: `CC=C1NC(=O)[C@@H](NC(=O)[C@@H](NC(=O)[C@@H]2CCCN2C(=O)CCC)[C@@H](C)O)[C@@H](C)OC(=O)[C@H](C(C)C)NC(=O)[C@H](Cc2ccc(O)cc2)N(C)C(=O)[C@H](Cc2ccccc2)N2C(=O)[C@H](CC[C@H]2O)NC1=O` [Rivulariapeptolide 988, rivulariapeptolide 988] was tested. Which pIC50 [1, 4] did it give?
Answer: 7.02

Question: And the “Mean (RFU/s)” value [1, 5]?
Answer: 4.956 RFU/s

Question: What about the “Mean (RFU/s)” value [1, 6] of the same molecule?
Answer: 4.945 RFU/s

Question: What about the “Mean (RFU/s)” value [1, 7] of the same molecule?
Answer: 5.008 RFU/s

Question: What about the “Mean (RFU/s)” value [1, 8] of the same molecule?
Answer: 5.099 RFU/s

Question: What about the “Mean (RFU/s)” value [1, 9] of the same molecule?
Answer: 4.694 RFU/s

Question: And the “Mean (RFU/s)” value [1, 10]?
Answer: 4.587 RFU/s

Question: And the “Mean (RFU/s)” value [1, 11]?
Answer: 3.41 RFU/s

Question: And the “Mean (RFU/s)” value [1, 12]?
Answer: 2.381 RFU/s

Question: And the “Mean (RFU/s)” value [1, 13]?
Answer: 1.135 RFU/s

Question: And the “Mean (RFU/s)” value [1, 14]?
Answer: 0.4203 RFU/s

Question: What about the “Mean (RFU/s)” value [1, 15] of the same molecule?
Answer: 0.1363 RFU/s

Question: What about the pIC50 [1, 16] of the same molecule?
Answer: 7.02

Question: And the pIC50 [2]?
Answer: 7.82

Question: And the “Mean (RFU/s)” value [2, 17]?
Answer: 0.804 RFU/s

Question: And the “Mean (RFU/s)” value [2, 18]?
Answer: 0.8127 RFU/s

Question: And the “Mean (RFU/s)” value [2, 19]?
Answer: 0.808 RFU/s

Question: What about the “Mean (RFU/s)” value [2, 20] of the same molecule?
Answer: 0.7693 RFU/s

Question: What about the “Mean (RFU/s)” value [2, 21] of the same molecule?
Answer: 0.661 RFU/s

Question: What about the “Mean (RFU/s)” value [2, 22] of the same molecule?
Answer: 0.463 RFU/s

Question: And the “Mean (RFU/s)” value [2, 23]?
Answer: 0.2057 RFU/s

Question: And the “Mean (RFU/s)” value [2, 24]?
Answer: 0.065 RFU/s

Question: And the “Mean (RFU/s)” value [2, 25]?
Answer: 0.018 RFU/s

Question: And the “Mean (RFU/s)” value [2, 26]?
Answer: 0 RFU/s

Question: And the “Mean (RFU/s)” value [2, 27]?
Answer: 0 RFU/s

Question: What about the pIC50 [3] of the same molecule?
Answer: 7.07

Question: What about the “Mean (RFU/s)” value [3, 17] of the same molecule?
Answer: 6.083 RFU/s

Question: What about the “Mean (RFU/s)” value [3, 18] of the same molecule?
Answer: 6.104 RFU/s

Question: What about the “Mean (RFU/s)” value [3, 19] of the same molecule?
Answer: 6.172 RFU/s

Question: What about the “Mean (RFU/s)” value [3, 20] of the same molecule?
Answer: 5.959 RFU/s

Question: What about the “Mean (RFU/s)” value [3, 21] of the same molecule?
Answer: 5.86 RFU/s

Question: What about the “Mean (RFU/s)” value [3, 22] of the same molecule?
Answer: 5.64 RFU/s

Question: And the “Mean (RFU/s)” value [3, 23]?
Answer: 4.799 RFU/s

Question: What about the “Mean (RFU/s)” value [3, 24] of the same molecule?
Answer: 2.395 RFU/s

Question: And the “Mean (RFU/s)” value [3, 25]?
Answer: 0.4403 RFU/s

Question: What about the “Mean (RFU/s)” value [3, 26] of the same molecule?
Answer: 0.07367 RFU/s

Question: And the “Mean (RFU/s)” value [3, 27]?
Answer: 0.022 RFU/s

Question: How did the pIC50 [1, 4] turn out when `C/C=C1\NC(=O)[C@@H](NC(=O)[C@@H](NC(=O)[C@H](C)NC(=O)CCC)[C@@H](C)O)[C@@H](C)OC(=O)[C@H](C(C)C)NC(=O)[C@H](Cc2ccc(O)c(Br)c2)N(C)C(=O)[C@H](Cc2ccccc2)N2C(=O)[C@H](CC[C@H]2O)NC1=O` [Molassamide B, molassamide B] was run?
Answer: 7.61

Question: What about the “Mean (RFU/s)” value [1, 5] of the same molecule?
Answer: 5.208 RFU/s

Question: And the “Mean (RFU/s)” value [1, 6]?
Answer: 5.061 RFU/s

Question: And the “Mean (RFU/s)” value [1, 7]?
Answer: 5.116 RFU/s

Question: And the “Mean (RFU/s)” value [1, 8]?
Answer: 5.104 RFU/s

Question: And the “Mean (RFU/s)” value [1, 9]?
Answer: 4.681 RFU/s

Question: And the “Mean (RFU/s)” value [1, 10]?
Answer: 3.888 RFU/s

Question: And the “Mean (RFU/s)” value [1, 11]?
Answer: 1.754 RFU/s

Question: And the “Mean (RFU/s)” value [1, 12]?
Answer: 0.844 RFU/s

Question: And the “Mean (RFU/s)” value [1, 13]?
Answer: 0.3123 RFU/s

Question: What about the “Mean (RFU/s)” value [1, 14] of the same molecule?
Answer: 0.1157 RFU/s

Question: And the “Mean (RFU/s)” value [1, 15]?
Answer: 0 RFU/s

Question: What about the pIC50 [1, 16] of the same molecule?
Answer: 7.61

Question: And the “fold increase in potency towards chymotrypsin” value [1]?
Answer: thirtyfive

Question: And the “fold increase in potency towards chymotrypsin” value ([1]; listed as 6)?
Answer: 35 fold

Question: And the pIC50 [2]?
Answer: 7.93

Question: What about the “Mean (RFU/s)” value [2, 17] of the same molecule?
Answer: 0.846 RFU/s

Question: What about the “Mean (RFU/s)” value [2, 18] of the same molecule?
Answer: 0.8437 RFU/s

Question: What about the “Mean (RFU/s)” value [2, 19] of the same molecule?
Answer: 0.8327 RFU/s

Question: What about the “Mean (RFU/s)” value [2, 20] of the same molecule?
Answer: 0.7837 RFU/s

Question: What about the “Mean (RFU/s)” value [2, 21] of the same molecule?
Answer: 0.677 RFU/s

Question: And the “Mean (RFU/s)” value [2, 22]?
Answer: 0.418 RFU/s

Question: And the “Mean (RFU/s)” value [2, 23]?
Answer: 0.1113 RFU/s

Question: And the “Mean (RFU/s)” value [2, 24]?
Answer: 0.024 RFU/s

Question: And the “Mean (RFU/s)” value [2, 25]?
Answer: 0 RFU/s

Question: What about the “Mean (RFU/s)” value [2, 26] of the same molecule?
Answer: 0 RFU/s

Question: And the “Mean (RFU/s)” value [2, 27]?
Answer: 0 RFU/s

Question: And the “fold increase in potency towards elastase” value [2, 28]?
Answer: three

Question: What about the pIC50 [3] of the same molecule?
Answer: 8.27

Question: And the “Mean (RFU/s)” value [3, 17]?
Answer: 6.3 RFU/s

Question: And the “Mean (RFU/s)” value [3, 18]?
Answer: 6.284 RFU/s

Question: And the “Mean (RFU/s)” value [3, 19]?
Answer: 6.22 RFU/s

Question: What about the “Mean (RFU/s)” value [3, 20] of the same molecule?
Answer: 5.564 RFU/s

Question: And the “Mean (RFU/s)” value [3, 21]?
Answer: 3.825 RFU/s

Question: And the “Mean (RFU/s)” value [3, 22]?
Answer: 1.43 RFU/s

Question: And the “Mean (RFU/s)” value [3, 23]?
Answer: 0.3433 RFU/s

Question: What about the “Mean (RFU/s)” value [3, 24] of the same molecule?
Answer: 0.1 RFU/s

Question: And the “Mean (RFU/s)” value [3, 25]?
Answer: 0.03367 RFU/s

Question: What about the “Mean (RFU/s)” value [3, 26] of the same molecule?
Answer: 0 RFU/s

Question: And the “Mean (RFU/s)” value [3, 27]?
Answer: 0 RFU/s

Question: And the “fold increase in potency towards proteinase K” value [3, 28]?
Answer: four

Question: Which results are given for `CCCC(=O)N1CCCC1C(=O)NC(C(=O)NC1C(=O)NC(CC(C)C)C(=O)NC2CCC(O)N(C2=O)C(Cc2ccccc2)C(=O)N(C)C(Cc2ccc(O)cc2)C(=O)NC(C(C)C)C(=O)OC1C)C(C)OC(=O)C1CCCN1C(=O)CCC` (stereo not drawn) [Rivulariapeptolide 1185, rivulariapeptolide 1185]?
Answer: pIC50 [1, 4]: 7.88; Mean (RFU/s) [1, 5]: 5.046 RFU/s; Mean (RFU/s) [1, 6]: 5.119 RFU/s; Mean (RFU/s) [1, 7]: 5.025 RFU/s; Mean (RFU/s) [1, 8]: 5.024 RFU/s; Mean (RFU/s) [1, 9]: 4.153 RFU/s; Mean (RFU/s) [1, 10]: 2.685 RFU/s; Mean (RFU/s) [1, 11]: 1.084 RFU/s; Mean (RFU/s) [1, 12]: 0.416 RFU/s; Mean (RFU/s) [1, 13]: 0.1823 RFU/s; Mean (RFU/s) [1, 14]: 0 RFU/s; Mean (RFU/s) [1, 15]: 0 RFU/s; pIC50 [1, 16]: 7.88; increase in potency towards chymotrypsin [1, 29]: more than threefold; pIC50 [2]: 7.63; Mean (RFU/s) [2, 17]: 0.9257 RFU/s; Mean (RFU/s) [2, 18]: 0.9033 RFU/s; Mean (RFU/s) [2, 19]: 0.876 RFU/s; Mean (RFU/s) [2, 20]: 0.8487 RFU/s; Mean (RFU/s) [2, 21]: 0.7693 RFU/s; Mean (RFU/s) [2, 22]: 0.589 RFU/s; Mean (RFU/s) [2, 23]: 0.369 RFU/s; Mean (RFU/s) [2, 24]: 0.07933 RFU/s; Mean (RFU/s) [2, 25]: 0.02233 RFU/s; Mean (RFU/s) [2, 26]: 0 RFU/s; Mean (RFU/s) [2, 27]: 0 RFU/s; decrease in potency towards elastase [2, 29]: fivefold; pIC50 [3]: 7.26; Mean (RFU/s) [3, 17]: 6.418 RFU/s; Mean (RFU/s) [3, 18]: 6.488 RFU/s; Mean (RFU/s) [3, 19]: 6.316 RFU/s; Mean (RFU/s) [3, 20]: 6.389 RFU/s; Mean (RFU/s) [3, 21]: 6.178 RFU/s; Mean (RFU/s) [3, 22]: 5.621 RFU/s; Mean (RFU/s) [3, 23]: 4.195 RFU/s; Mean (RFU/s) [3, 24]: 1.657 RFU/s; Mean (RFU/s) [3, 25]: 0.4863 RFU/s; Mean (RFU/s) [3, 26]: 0.13 RFU/s; Mean (RFU/s) [3, 27]: 0.04267 RFU/s
